Assay results as given in PMC4878744, “Structure, Regulation, and Inhibition of the Quorum-Sensing Signal Integrator LuxO” (PLoS Biology, 2016).

What was measured:
[1] = target: T1, V. vulnificus LuxO-C (Vibrio vulnificus, UniProt Q8CWJ5); conditions: pH 7.4, 23°C; turnover number versus LuxO-C concentration only in Figure 4A
[2] = target: T1, V. vulnificus LuxO-C; assay: NADH-coupled ATPase assay, fit to one-inhibitor-per-oligomer model; assay type: biochemical; parameters: catalytic (C) domain only, R and D domains absent; C-terminal His6 tag; expressed in E. coli BL21(DE3); hexamer 173 kDa theoretical; conditions: competitive with ATP; 100 μM LuxO-C, 2 mM ATP, pH 7.4, 23°C, 4% DMSO; K is affinity relative to ATP (dimensionless ratio)

T1 sequence (Q8CWJ5 132-378): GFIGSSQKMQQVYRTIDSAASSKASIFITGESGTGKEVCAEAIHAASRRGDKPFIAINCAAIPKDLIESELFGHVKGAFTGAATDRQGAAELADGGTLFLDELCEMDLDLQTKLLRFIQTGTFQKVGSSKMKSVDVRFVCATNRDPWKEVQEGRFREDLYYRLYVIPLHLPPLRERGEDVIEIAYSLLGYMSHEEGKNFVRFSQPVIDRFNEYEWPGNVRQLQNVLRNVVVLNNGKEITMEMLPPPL

Row | Compound | NADH-coupled ATPase assay [1] | K (= Kd^ATP / Kd^AzaU) [2]
1 | Nc1ncnc2c1ncn2[C@@H]1O[C@H](COP(=O)(O)OP(=O)(O)OP(=O)(O)O)[C@@H](O)[C@H]1O [ATP] | V. vulnificus LuxO-C | 
2 | AzaU |  | 34 ± 2
